Laboratory results published in patent US20100264359A1, “BIOCIDAL MIXTURES” (LANXESS DEUTSCHLAND GMBH, priority 2007, published 2010).

How the values were obtained:
Molds = assay: Preservation of a cooling lubricant emulsion, repeated weekly contamination with molds; type: cell-based, Acremonium strictum, Fusarium solani, Geotrichum candidum; conditions: maximum of 10 weeks; for Number of weeks in which the growth of microorganisms lay beneath the limiting values (molds <10^3-4 CFU/g): 0.05% (=500 ppm) BIT in cooling lubricant emulsion; for Number of weeks in which the growth of microorganisms remained below the limiting values (molds <10^3-4 CFU/g): 0.18% (=1800 ppm) OPP in cooling lubricant emulsion
Experimental: (§1) For this purpose, preserved samples of the cooling lubricant emulsion were repeatedly exposed in a weekly cycle to microbiological contamination with the following microorganisms:
(§2) The bacteria mixture was added in each case separately from the yeasts/molds. The maximum experimental time was 10 weeks (=10 contaminations/inoculation cycles), provided that the weekly cell count determination (in each case 7 days after the contamination) was kept within the following limiting values:
(§3) bacteria <10^6 CFU/g yeasts/molds <10^3-4 CFU/g
(§4) The experiment was terminated when said values were exceeded twice in succession.

Yeasts = assay: Preservation of a cooling lubricant emulsion, repeated weekly contamination with yeasts; type: cell-based, Rhodotorula rubra; conditions: maximum of 10 weeks; for Number of weeks in which the growth of microorganisms lay beneath the limiting values (yeasts <10^3-4 CFU/g): 0.05% (=500 ppm) BIT in cooling lubricant emulsion; for Number of weeks in which the growth of microorganisms remained below the limiting values (yeasts <10^3-4 CFU/g): 0.18% (=1800 ppm) OPP in cooling lubricant emulsion
Experimental: as §1, §2, §3, §4

Bacteria = assay: Preservation of a cooling lubricant emulsion, repeated weekly contamination with bacteria mixture; type: cell-based; conditions: maximum of 10 weeks; for Number of weeks in which the growth of microorganisms lay beneath the limiting values (bacteria <10^6 CFU/g): 0.05% (=500 ppm) BIT in cooling lubricant emulsion; for Number of weeks in which the growth of microorganisms remained below the limiting values (bacteria <10^6 CFU/g): 0.18% (=1800 ppm) OPP in cooling lubricant emulsion
Experimental: as §1, §2, §3, §4

| Compound | Number of weeks in which the growth of microorganisms lay beneath the limiting values (molds <10^3-4 CFU/g) (Molds) | Number of weeks in which the growth of microorganisms lay beneath the limiting values (molds <10^3-4 CFU/g) (Molds; listed as benzisothiazolinone) | Number of weeks in which the growth of microorganisms lay beneath the limiting values (yeasts <10^3-4 CFU/g) (Yeasts) | Number of weeks in which the growth of microorganisms lay beneath the limiting values (yeasts <10^3-4 CFU/g) (Yeasts; listed as benzisothiazolinone) | Number of weeks in which the growth of microorganisms lay beneath the limiting values (bacteria <10^6 CFU/g) (Bacteria) | Number of weeks in which the growth of microorganisms lay beneath the limiting values (bacteria <10^6 CFU/g) (Bacteria; listed as benzisothiazolinone) | Number of weeks in which the growth of microorganisms remained below the limiting values (molds <10^3-4 CFU/g) (Molds) | Number of weeks in which the growth of microorganisms remained below the limiting values (molds <10^3-4 CFU/g) (Molds; listed as o-phenylphenol) | Number of weeks in which the growth of microorganisms remained below the limiting values (yeasts <10^3-4 CFU/g) (Yeasts) | Number of weeks in which the growth of microorganisms remained below the limiting values (yeasts <10^3-4 CFU/g) (Yeasts; listed as o-phenylphenol) | Number of weeks in which the growth of microorganisms remained below the limiting values (bacteria <10^6 CFU/g) (Bacteria) | Number of weeks in which the growth of microorganisms remained below the limiting values (bacteria <10^6 CFU/g) (Bacteria; listed as o-phenylphenol) |
| --- | --- | --- | --- | --- | --- | --- | --- | --- | --- | --- | --- | --- |
| O=c1[nH]sc2ccccc12 [BIT, benzisothiazolinone] | 1 week weeks | 1 week (of a maximum of 10 weeks) | 7 weeks | 7 weeks (of a maximum of 10 weeks) | 1 week weeks | 1 week (of a maximum of 10 weeks) |  |  |  |  |  |  |
| Oc1ccccc1-c1ccccc1 [OPP, o-phenylphenol] |  |  |  |  |  |  | 10 weeks | 10 weeks (of a maximum of 10 weeks) | 10 weeks | 10 weeks (of a maximum of 10 weeks) | 2 weeks | 2 weeks (of a maximum of 10 weeks) |
